We go through 2 compounds from patent publication US20240398697A1, “Injectable Formulations” (The University of Liverpool, priority 2021, published 2024).

Each structure is given as a SMILES string. Where two headings read alike, the source gives them in different places.

Series [1] in a line: Terminal half-life of conventional aqueous formulations injected intramuscularly. Details: species or system adult male Wistar rats. The following applies: male, Wistar, rat, in vivo, im. The text has this:
The foregoing experiments have shown that solid compositions comprising microparticles of glecaprevir and/or pibrentasvir may be formed through combination with certain first and second excipients. […] The solid compositions have also been reformulated into implantable rods, and microneedle arrays. Any of the solid compositions, aqueous dispersions, implantable rods, and microneedle arrays are expected to be therapeutically useful based on the known therapeutic uses of glecaprevir and pibrentasvir and the well-tolerated nature of the first and second excipients used. In addition, the form of the solid composition, aqueous dispersion, implantable rod, and microneedle array are expected to provide enhanced pharmacokinetic properties and therapeutic benefits when compared to conventional glecaprevir and pibrentasvir orally-dosed formulations. […] In particular, the formulations comprising microparticles of glecaprevir and/or pibrentasvir as described herein are expected to greatly improve the terminal half-life of the glecaprevir and/or pibrentasvir in vivo as compared to conventional aqueous formulations in which the glecaprevir and/or pibrentasvir are solubilised through addition of DMSO, when the formulations are delivered as intramuscular and/or subcutaneous injections.

The nature of series [2]: Ex vivo skin deposition, modified Franz diffusion cell. In kind it is in vitro ADME. The procedure:
Ex vivo skin deposition experiments were carried out utilising a modified Franz diffusion cell. Full thickness skin was collected and excised within 24 hours of birth. On the day of the experiment, the skin was first pre-equilibrated in PBS at pH 7.4 for 30 minutes until totally thawed and then carefully shaved using a razor. It was then cyanoacrylate-glued to the donor compartment of the Franz diffusion cells to ensure its adhesion to the set up during the microneedle insertion and throughout the experiment. Microneedle arrays were applied to the skin using firm thumb pressure for 30 seconds. A stainless-steel cylinder (diameter 11 mm, mass 11.5 g) was put on the top of each microneedle array to hold them in place throughout the experiment. The receiver compartment was filled with 12 mL of 1% w/v SLS in PBS (pH 7.4). The donor compartment was clamped on top of the receiver compartment and wrapped with Parafilm® M to prevent solvent evaporation. Samples of 200 μL of the receiver compartment were taken at predefined time points of 0.5, 1, 1.5, 2, 3, 4, 6, 10, and 24 hours and was replaced with the fresh release medium. At 24 hours, the Franz cells were disassembled, the skin surface dabbed clean to remove surface drug, and glecaprevir and pibrentasvir were extracted from skins. Cumulative amounts of glecaprevir and pibrentasvir delivered from each formulation to both skin and receiver compartments were also determined. To extract the drug from the skin, skin samples collected at 24 hours were cut into small pieces, where 0.5 ml of water was added to each sample. They were then homogenised for 15 minutes using a Tissue Lyser LT. Subsequently, 1 mL of methanol was added, and samples were homogenised again for another 15 minutes. Then they were transferred to the tubes followed by adding 3.5 mL of methanol. After a 30-min sonication, 100 μL of the samples were diluted to 1 mL by PBS buffer. The samples were vortexed and centrifuged, then analysed by HPLC.

The nature of series [3]: In vivo plasma concentration after microneedle, intramuscular and intravenous administration (Example 22). The following applies: 5 mg/kg IV in DMSO/PEG 400/cyclodextrin; monitored 48 hour. Details: species or system Female Sprague-Dawley rats. The procedure: Animals were separated into three cohorts; each was comprised of 6 rats. Every 3 rats were housed in a different cage. Each rat of the first cohort (rats 1-6) received four microneedle arrays with a total dose of 16 mg (8 mg of glecaprevir and 8 mg of pibrentasvir). The second cohort (rats 7-12) received intramuscular injections of glecaprevir and pibrentasvir. For each rat, 37.5 mg of the glecaprevir30/pibrentasvir30/[…]10 formulation was dispersed in 300 μL of sterile water, then 150 μL of the solution was injected into each thigh of the rat. The dose given to each rat was approximately […]. The final cohort (rats 13-18) received 5 mg/kg of glecaprevir and pibrentasvir given as IV injections. The IV formulations were prepared by dissolving each drug in 5% v/v DMSO, 10% v/v PEG 400 in water diluted with 20% v/v hydroxy-B-cyclodextrin in water. To minimise the interference of hair in application of the microneedle arrays, the dorsal hair of the rats from the first cohort (rats 1-6) was removed prior to the experiment. The bulk hair was shaved using an electric hair clipper and the remaining hair residuals were removed using depilatory hair removal cream. Rats were then left for a 24 hour period to allow the skin to recover and to ensure complete restoration of skin barrier function before affixing the microneedle arrays. […]

On to `COC(=O)N[C@H](C(=O)N1CCC[C@H]1c1nc2cc([C@H]3CC[C@H](c4cc5nc([C@@H]6CCCN6C(=O)[C@@H](NC(=O)OC)[C@@H](C)OC)[nH]c5cc4F)N3c3cc(F)c(N4CCC(c5ccc(F)cc5)CC4)c(F)c3)c(F)cc2[nH]1)[C@@H](C)OC` [pibrentasvir, Pibrentasvir], for which the half-life (commonly the time in which the quantity being followed falls by half) in series [1] is 600 min. In series [2] (24 h, pH 7.4), the “delivered to the receiver compartment of the Franz diffusion cells” value was 115.2 ± 29 µg; the “deposited into the skin” value was determined as 304 ± 45.7 µg; the “total amount delivered as share of drug initially present in the microneedle arrays” value is reported as 23.4±3.2%; the “total amount delivered to the skin and receiver compartment” value was determined as 419.2 ± 56.6 µg.
Take `CC(C)(C)[C@@H]1NC(=O)O[C@@H]2CCC[C@H]2OC/C=C/C(F)(F)c2nc3ccccc3nc2O[C@@H]2C[C@@H](C(=O)N[C@]3(C(=O)NS(=O)(=O)C4(C)CC4)C[C@H]3C(F)F)N(C2)C1=O` [glecaprevir, Glecaprevir]: the half-life in series [1] (conventional aqueous formulation (solubilised through addition of DMSO), injected intramuscularly, read-out: terminal half-life (converted)) is 240 min. In series [3], the “plasma concentration after intravenous (IV) administration” value is “subsided quickly within the 48 hour period”. For the same compound, in series [2] (from microneedle arrays, over 24 h), the “deposited into the skin” value turned out to be 285.2 ± 51.3 µg. Further, the “delivered to the receiver compartment of the Franz diffusion cells” value in series [2] (from microneedle arrays, over 24 h, receiver 1% w/v SLS in PBS pH 7.4) worked out at 203.9 ± 41.3 µg. Further, the “total amount delivered to the skin and receiver compartment” value in series [2] (from microneedle arrays, over 24 hours) was found to be 489.1 ± 68.6 µg. The “total amount delivered as share of drug initially present in the microneedle arrays” value in series [2] (over 24 hours) worked out at 25.1±3.5%.
